Peptide text beside a SMILES is read from it.
Tests used:
[1] = molecular target: T1, IAPP37 (Homo sapiens, UniProt P10997); assay: Thioflavin T (ThT) IAPP37 fibrillation assay; type: biochemical; conditions: 37 °C; for IAPP aggregation dynamics (AUC of ThT fluorescence) with inhibitor, % of IAPP37 aggregation: linear range of 90-160 min, 50 μM IAPP37 with 50 μM inhibitory peptide, p=0.003
T1 construct: ThT fibrillation assay
T1 sequence (P10997 34-70): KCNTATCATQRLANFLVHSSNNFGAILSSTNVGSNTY
Procedure: (§1) Thioflavin T in vitro assay for IAPP and Ab amyloid formation: Thioflavin T (ThT) was from Millipore-Sigma (Cat #T3516, Rockville, MD). […] Black 96 well microplates (Chimney Well) were from Greiner Bio-One (Frickenhausen, Germany). C-terminal amidated IAPP25 and DNSP11 peptides were synthesized by GeneMed Synthesis Inc (San Antonio, TX). […] The final concentration […] 1% DMSO and 25 μM ThT in Component A buffer (AnaSpec Manual of SensoLyte Thioflavin T Aggregation Kit, Cat #AS-72214).
Statistical data analysis: GraphPad Prism v9 software was used for statistical analysis of RT-qPCR and SRM data and MetaboAnalyst v5.0 (metaboanalyst.ca/) was used for partial least squares-discriminant analysis (PLS-DA). P<0.05 was considered significant and data were represented as means±SEM. The normalized expression values of IAPP isoforms in TaqMan fold changes and ddPCR IAPP/GAPDH droplets, ELISA, and SRM quantitative values were analyzed with unpaired student t-test, Pearson correlation coefficient matrix. All statistical procedures for SRM biomarker discovery were carried out by using GraphPad Prism v9 software and MetaboAnalyst 5.0. Biomarker accuracies were calculated by area under the receiver operating characteristic curve (AUROC). For ThT amyloid dye assay, area under a curve (AUC) was calculated using the trapezoidal rule and the data were analyzed using one-way ANOVA with Tukey's multiple comparison correction. The ratio of means (±SEM) was calculated by propagation of error formula.
(§2) FIG. 10A is a representative experiment of three replicates showing IAPP37 aggregation dynamics with lag time of 90 min and inhibition by IAPP25 (derived from IAPP-γ) and DNSP11. […] ThT binding fluorescent intensity (F.I.) was transformed to area under curve (AUC) using the trapezoidal rule and the inhibitions were analyzed by one-way ANOVA with Tukey's multi-test correction.

[2] = molecular target: T2, Aβ42 (Homo sapiens, UniProt P05067); assay: Thioflavin T (ThT) Aβ42 fibrillation assay; type: biochemical; conditions: linear range of 70-120 min; 50 μM Aβ42 with 50 μM inhibitory peptide; 37 °C; p<0.0001
T2 construct: ThT fibrillation assay
T2 sequence (P05067 672-713): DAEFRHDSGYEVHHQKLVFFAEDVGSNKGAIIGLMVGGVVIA
Procedure: Thioflavin T in vitro assay for IAPP and Ab amyloid formation: Thioflavin T (ThT) was from Millipore-Sigma (Cat #T3516, Rockville, MD). […] Black 96 well microplates (Chimney Well) were from Greiner Bio-One (Frickenhausen, Germany). […] The final concentration the monomeric peptides was 1% DMSO and 25 μM ThT in Component A buffer (AnaSpec Manual of SensoLyte Thioflavin T Aggregation Kit, Cat #AS-72214).
P<0.05 was considered significant and data were represented as means±SEM. […] For ThT amyloid dye assay, area under a curve (AUC) was calculated using the trapezoidal rule and the data were analyzed using one-way ANOVA with Tukey's multiple comparison correction. The ratio of means (±SEM) was calculated by propagation of error formula.

[3] = ThT amyloid reporter binding assay of peptide alone
Procedure: as §1, §2

[4] = system: dopaminergic neurons; conditions: animal models of Parkinson's disease; amidated DNSP11; cited from earlier work

Row | lag time of IAPP37 aggregation ([1]; IAPP37, representative experiment of three replicates) | Aβ aggregation dynamics (AUC of ThT fluorescence) with inhibitor, % of Aβ42 aggregation [2] | binding to ThT amyloid reporter [3] | IAPP aggregation dynamics (AUC of ThT fluorescence) with inhibitor, % of IAPP37 aggregation [1] | Molecule | protection of dopaminergic neurons [4]
1 | 90 min | – | – | – | KCNTATCATQRLANFLVHSSNNFGAILSSTNVGSNTY [IAPP37, mature human IAPP, 37-AA peptide (AnaSpec Cat #AS-60254-1), reference compound] | –
2 | – | 50.6% | did not bind | 25.0% | CC[C@H](C)[C@H](NC(=O)[C@H](CCC(N)=O)NC(=O)[C@H](Cc1c[nH]c2ccccc12)NC(=O)[C@H](C)NC(=O)[C@H](CO)NC(=O)[C@H](CCCNC(=N)N)NC(=O)[C@H](CCC(N)=O)NC(=O)[C@@H](NC(=O)[C@H](Cc1c[nH]cn1)NC(=O)[C@@H]1CCCN1C(=O)[C@H](CC(C)C)NC(=O)[C@@H](NC(=O)[C@H](C)NC(=O)[C@H](CC(N)=O)NC(=O)CNC(=O)[C@H](CO)NC(=O)[C@H](CCCCN)NC(=O)[C@H](Cc1c[nH]c2ccccc12)NC(=O)[C@H](CCCNC(=N)N)NC(=O)[C@@H](NC(=O)[C@@H](NC(=O)[C@H](CCCCN)NC(=O)[C@H](CO)NC(=O)[C@@H](N)CCCCN)C(C)C)[C@@H](C)CC)[C@@H](C)O)C(C)C)C(=O)N[C@@H](Cc1ccccc1)C(N)=O [IAPP25] (H-KSKVIRWKSGNATLPHVQRSAWQIF-NH2) | –
3 | – | 62.9% | did not bind | 24.1% | CC(C)C[C@H](NC(=O)[C@H](CO)NC(=O)[C@H](CCCNC(=N)N)NC(=O)[C@H](CC(=O)O)NC(=O)[C@H](CCC(=O)O)NC(=O)[C@H](C)NC(=O)[C@@H]1CCCN1C(=O)[C@H](C)NC(=O)[C@H](CCC(=O)O)NC(=O)[C@@H]1CCCN1C(=O)[C@@H]1CCCN1)C(N)=O [DNSP11] (H-PPEAPAEDRSL-NH2) | protective to dopaminergic neurons
